Measured values: ChEMBL document CHEMBL1909046, “DrugMatrix in vitro pharmacology data”

Experiments:
[1] = biological target: Vascular endothelial growth factor receptor 1 (Homo sapiens, UniProt P17948); test: biochemical; format: cell-based, HUVEC; details: huvec; also: in other assays of this panel Not Active means under 50% inhibition at 10 µM
[2] = biological target: T1, Type-2 angiotensin II receptor (Homo sapiens, UniProt P50052); format: cell-based; details: cho-k1; also: in other assays of this panel Not Active means under 50% inhibition at 10 µM
T1 sequence (P50052 whole entry): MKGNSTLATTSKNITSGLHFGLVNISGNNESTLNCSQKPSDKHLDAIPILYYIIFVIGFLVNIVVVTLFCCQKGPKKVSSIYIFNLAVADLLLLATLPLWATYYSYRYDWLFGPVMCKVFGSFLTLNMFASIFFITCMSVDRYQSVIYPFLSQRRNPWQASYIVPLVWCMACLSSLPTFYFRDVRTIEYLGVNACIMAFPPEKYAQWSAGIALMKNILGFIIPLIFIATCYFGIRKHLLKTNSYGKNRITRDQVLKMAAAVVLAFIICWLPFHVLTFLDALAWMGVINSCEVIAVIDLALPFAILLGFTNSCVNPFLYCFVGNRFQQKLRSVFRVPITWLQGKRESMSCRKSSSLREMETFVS

[3] = DRUGMATRIX: Calcium Channel Type L, Benzothiazepine radioligand binding (ligand: [3H] Diltiazem); format: cell membranes, Rattus norvegicus, Wistar, Brain, Membrane; details: Not Active = under 50% inhibition at 10 µM
[4] = biological target: T2, 3-hydroxy-3-methylglutaryl-coenzyme A reductase (Homo sapiens, UniProt P04035); set-up: species or system Escherichia coli;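 also: enzyme inhibition assay of HMG-CoA reductase using radiolabeled [14C]HMG-CoA as substrate; in other assays of this panel Not Active means under 50% inhibition at 10 µM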
T2 sequence (P04035 whole entry): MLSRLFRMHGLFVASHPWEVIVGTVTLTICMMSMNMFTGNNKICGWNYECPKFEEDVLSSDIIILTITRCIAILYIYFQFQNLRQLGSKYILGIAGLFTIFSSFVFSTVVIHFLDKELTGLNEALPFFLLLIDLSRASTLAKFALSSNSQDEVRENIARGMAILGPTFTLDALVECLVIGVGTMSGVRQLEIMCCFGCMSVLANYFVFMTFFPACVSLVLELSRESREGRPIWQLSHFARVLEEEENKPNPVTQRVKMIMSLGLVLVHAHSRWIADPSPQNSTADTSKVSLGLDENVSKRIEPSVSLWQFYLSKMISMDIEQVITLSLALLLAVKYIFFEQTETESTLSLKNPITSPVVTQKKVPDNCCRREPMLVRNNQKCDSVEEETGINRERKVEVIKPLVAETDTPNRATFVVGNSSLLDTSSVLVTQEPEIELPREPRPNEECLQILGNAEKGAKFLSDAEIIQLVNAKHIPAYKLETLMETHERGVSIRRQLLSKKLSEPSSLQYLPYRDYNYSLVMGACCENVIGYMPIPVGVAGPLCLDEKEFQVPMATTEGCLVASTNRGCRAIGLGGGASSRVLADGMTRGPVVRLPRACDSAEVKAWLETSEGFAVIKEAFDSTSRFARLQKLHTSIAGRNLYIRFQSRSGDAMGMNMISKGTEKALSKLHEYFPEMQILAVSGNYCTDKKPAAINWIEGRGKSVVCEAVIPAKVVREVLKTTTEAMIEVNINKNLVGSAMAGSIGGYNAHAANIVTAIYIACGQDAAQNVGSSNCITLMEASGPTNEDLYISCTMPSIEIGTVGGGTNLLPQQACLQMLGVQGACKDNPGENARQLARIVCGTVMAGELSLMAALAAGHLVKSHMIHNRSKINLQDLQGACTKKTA

[5] = biological target: Beta-2 adrenergic receptor (Homo sapiens, UniProt P07550); test: DRUGMATRIX: Adrenergic beta2 radioligand binding (ligand: [3H] CGP-12177); format: cell membranes, CHO, Membrane; details: cho; Not Active = under 50% inhibition at 10 µM
[6] = DRUGMATRIX: Interleukin IL-1 radioligand binding (ligand: [125I] interleukin 1beta); format: cell membranes, Membrane; details: nih3t3; Not Active = under 50% inhibition at 10 µM
[7] = biological target: Prostaglandin G/H synthase 1 (Homo sapiens, UniProt P23219); test: biochemical; format: tissue-based, Platelet;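 also: inhibition of COX-1 enzyme activity, with arachidonic acid supplied as substrate; in other assays of this panel Not Active means under 50% inhibition at 10 µM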
[8] = biological target: Beta-1 adrenergic receptor (Homo sapiens, UniProt P08588); test: DRUGMATRIX: Adrenergic beta1 radioligand binding (ligand: [125I] Cyanopindolol); format: cell membranes, CHO-K1, Membrane; details: cho-k1; Not Active = under 50% inhibition at 10 µM
Beta-1 adrenergic receptor, sequence (P08588 whole entry): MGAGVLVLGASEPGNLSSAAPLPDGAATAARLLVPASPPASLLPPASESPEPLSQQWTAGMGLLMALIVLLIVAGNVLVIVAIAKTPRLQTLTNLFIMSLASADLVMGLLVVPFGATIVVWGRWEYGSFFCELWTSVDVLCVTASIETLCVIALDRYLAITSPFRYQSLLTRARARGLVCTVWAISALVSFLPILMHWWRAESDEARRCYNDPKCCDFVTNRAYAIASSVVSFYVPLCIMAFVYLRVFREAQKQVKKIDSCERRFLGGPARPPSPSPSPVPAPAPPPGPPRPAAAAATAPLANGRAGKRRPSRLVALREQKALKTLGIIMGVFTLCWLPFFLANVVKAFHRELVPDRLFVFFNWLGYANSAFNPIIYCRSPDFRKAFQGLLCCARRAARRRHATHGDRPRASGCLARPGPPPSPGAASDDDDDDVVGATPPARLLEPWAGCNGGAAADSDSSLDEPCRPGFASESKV

Vascular endothelial growth factor receptor 1, sequence (P17948 whole entry): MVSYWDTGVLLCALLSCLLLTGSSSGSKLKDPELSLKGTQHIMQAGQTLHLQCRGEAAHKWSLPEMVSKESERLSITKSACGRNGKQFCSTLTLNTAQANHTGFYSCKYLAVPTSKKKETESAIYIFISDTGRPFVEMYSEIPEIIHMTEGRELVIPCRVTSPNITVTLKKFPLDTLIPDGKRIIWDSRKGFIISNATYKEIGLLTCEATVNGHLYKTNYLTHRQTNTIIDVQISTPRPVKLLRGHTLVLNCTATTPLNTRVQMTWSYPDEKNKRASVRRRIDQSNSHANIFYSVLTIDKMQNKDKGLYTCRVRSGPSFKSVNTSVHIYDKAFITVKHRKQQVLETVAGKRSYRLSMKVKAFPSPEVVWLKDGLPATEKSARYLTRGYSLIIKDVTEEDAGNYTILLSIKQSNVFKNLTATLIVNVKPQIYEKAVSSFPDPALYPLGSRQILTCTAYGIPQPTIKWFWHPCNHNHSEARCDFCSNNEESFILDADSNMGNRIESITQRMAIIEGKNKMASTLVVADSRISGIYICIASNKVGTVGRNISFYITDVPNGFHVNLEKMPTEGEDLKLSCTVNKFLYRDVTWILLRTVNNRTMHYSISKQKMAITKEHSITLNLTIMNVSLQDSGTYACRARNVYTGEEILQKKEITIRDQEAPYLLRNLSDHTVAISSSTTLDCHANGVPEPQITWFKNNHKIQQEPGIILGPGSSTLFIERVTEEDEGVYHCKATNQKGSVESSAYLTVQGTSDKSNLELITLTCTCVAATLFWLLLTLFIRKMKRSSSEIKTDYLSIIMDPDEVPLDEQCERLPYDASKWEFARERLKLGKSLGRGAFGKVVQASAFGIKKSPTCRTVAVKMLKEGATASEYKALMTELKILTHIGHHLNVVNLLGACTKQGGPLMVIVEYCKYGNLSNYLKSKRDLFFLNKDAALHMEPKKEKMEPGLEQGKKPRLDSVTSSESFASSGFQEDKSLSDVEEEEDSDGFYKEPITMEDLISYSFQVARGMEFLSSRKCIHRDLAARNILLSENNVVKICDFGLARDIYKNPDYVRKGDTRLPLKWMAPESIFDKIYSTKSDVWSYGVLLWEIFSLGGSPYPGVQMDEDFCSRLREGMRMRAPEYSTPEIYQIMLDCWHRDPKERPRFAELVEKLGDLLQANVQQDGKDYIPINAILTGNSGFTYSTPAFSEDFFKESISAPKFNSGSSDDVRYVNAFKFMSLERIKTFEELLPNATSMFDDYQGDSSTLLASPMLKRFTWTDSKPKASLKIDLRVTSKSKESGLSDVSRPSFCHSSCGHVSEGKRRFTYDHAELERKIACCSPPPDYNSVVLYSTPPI
Beta-2 adrenergic receptor, sequence (P07550 whole entry): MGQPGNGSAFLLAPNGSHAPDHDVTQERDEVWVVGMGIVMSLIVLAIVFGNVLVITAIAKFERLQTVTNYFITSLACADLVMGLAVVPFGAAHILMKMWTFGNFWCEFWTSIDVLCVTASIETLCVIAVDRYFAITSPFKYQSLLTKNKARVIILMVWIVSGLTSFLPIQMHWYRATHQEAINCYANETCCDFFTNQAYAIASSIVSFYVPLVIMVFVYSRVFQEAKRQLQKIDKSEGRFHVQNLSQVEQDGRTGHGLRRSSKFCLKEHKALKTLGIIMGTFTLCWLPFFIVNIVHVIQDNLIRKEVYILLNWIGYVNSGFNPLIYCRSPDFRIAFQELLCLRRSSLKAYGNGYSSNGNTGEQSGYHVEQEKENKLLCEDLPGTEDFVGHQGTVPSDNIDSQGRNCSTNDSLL
Prostaglandin G/H synthase 1, sequence (P23219 whole entry): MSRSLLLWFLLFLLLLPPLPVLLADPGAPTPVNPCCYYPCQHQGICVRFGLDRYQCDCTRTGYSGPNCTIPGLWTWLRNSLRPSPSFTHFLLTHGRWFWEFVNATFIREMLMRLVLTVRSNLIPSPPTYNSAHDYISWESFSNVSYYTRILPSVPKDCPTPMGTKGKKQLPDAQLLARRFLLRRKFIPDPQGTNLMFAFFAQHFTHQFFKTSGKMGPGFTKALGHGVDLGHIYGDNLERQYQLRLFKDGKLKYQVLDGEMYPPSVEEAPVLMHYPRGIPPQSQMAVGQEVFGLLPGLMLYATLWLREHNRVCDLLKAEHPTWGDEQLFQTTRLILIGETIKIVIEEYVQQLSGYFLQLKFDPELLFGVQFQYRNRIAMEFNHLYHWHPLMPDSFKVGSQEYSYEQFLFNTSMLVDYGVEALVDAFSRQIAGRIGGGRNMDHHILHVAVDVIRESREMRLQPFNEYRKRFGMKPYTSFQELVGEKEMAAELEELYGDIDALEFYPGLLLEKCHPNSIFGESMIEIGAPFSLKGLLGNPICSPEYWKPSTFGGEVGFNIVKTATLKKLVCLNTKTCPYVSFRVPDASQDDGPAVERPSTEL

Row | Structure (SMILES) | IC50 [1] | IC50 [2] | IC50 ([3]; read-out: IC50) [nM] | Ki ([3]; read-out: Ki) [nM] | IC50 [4] | IC50 [5] | IC50 [6] | Ki [6] | IC50 ([7]; platelet) | IC50 [8] | IC50 [3] | Ki [3] | IC50 ([7]; read-out: IC50) [nM] | Ki [5]
1 | Cc1c(C)c2c(c(C)c1O)CCC(C)(CN1CCN(c3cc(N4CCCC4)nc(N4CCCC4)n3)CC1)O2 (stereo not given) | Not Active | Not Active | 1650 | 1470 | Not Active | Not Active | Not Active | Not Active | Not Active | Not Active | – | – | – | –
2 | COc1ccc(CCN(C)CCCC(C#N)(c2ccc(OC)c(OC)c2)C(C)C)cc1OC (stereo not given) | Not Active | Not Active | 14 | 12 | Not Active | Not Active | Not Active | Not Active | Not Active | Not Active | – | – | – | –
3 | CC(C)Cc1ccc([C@@H](C)C(=O)O)cc1 [(R)-IBUPROPHEN] | Not Active | Not Active | – | – | Not Active | Not Active | Not Active | Not Active | Not Active | Not Active | Not Active | Not Active | – | –
4 | CN(C)CCOC(c1ccccc1)c1ccccc1 [DIPHENHYDRAMINE] | Not Active | Not Active | – | – | Not Active | Not Active | – | – | Not Active | Not Active | – | – | – | –
5 | Clc1ccc(COC(Cn2ccnc2)c2ccc(Cl)cc2Cl)cc1 (stereo not given) [ECONAZOLE] | Not Active | Not Active | – | – | Not Active | Not Active | – | – | Not Active | – | – | – | – | –
6 | CCN(CC)CCOc1ccc(/C(=C(/Cl)c2ccccc2)c2ccccc2)cc1 [ENCLOMIPHENE] | Not Active | Not Active | – | – | Not Active | Not Active | – | – | – | Not Active | – | – | 346 | –
7 | Fc1ccc(C(c2ccc(F)cc2)N2CCN(C/C=C/c3ccccc3)CC2)cc1 [FLUNARIZINE] | Not Active | Not Active | – | – | Not Active | Not Active | – | – | Not Active | Not Active | – | – | – | –
8 | CNCCC(Oc1ccc(C(F)(F)F)cc1)c1ccccc1 (stereo not given) [FLUOXETINE] | Not Active | Not Active | – | – | Not Active | Not Active | – | – | Not Active | Not Active | – | – | – | –
9 | Cc1ccc(NC(=O)c2ccc(CN3CCN(C)CC3)cc2)cc1Nc1nccc(-c2cccnc2)n1 [IMATINIB] | – | Not Active | – | – | Not Active | Not Active | – | – | Not Active | Not Active | – | – | – | –
10 | CC(C)Oc1ccc2c(=O)c(-c3ccccc3)coc2c1 [IPRIFLAVONE] | Not Active | Not Active | – | – | Not Active | – | Not Active | Not Active | – | Not Active | Not Active | Not Active | – | Not Active
11 | CC(C)NCC(O)c1ccc(O)c(O)c1 (stereo not given) [ISOPROTERENOL] | Not Active | Not Active | – | – | Not Active | – | Not Active | Not Active | Not Active | – | Not Active | Not Active | – | –
12 | CNC1(c2ccccc2Cl)CCCCC1=O (stereo not given) [KETAMINE] | Not Active | Not Active | – | – | Not Active | Not Active | Not Active | Not Active | Not Active | Not Active | Not Active | Not Active | – | –
13 | N#Cc1ccc(C(c2ccc(C#N)cc2)n2cncn2)cc1 [LETROZOLE] | Not Active | Not Active | – | – | Not Active | Not Active | Not Active | Not Active | Not Active | Not Active | Not Active | Not Active | – | –
14 | CN[C@H]1CC[C@@H](c2ccc(Cl)c(Cl)c2)c2ccccc21 [SERTRALINE] | Not Active | Not Active | – | – | Not Active | Not Active | – | – | Not Active | Not Active | – | – | – | –
15 | CC(C)NCC(O)c1ccc(NS(C)(=O)=O)cc1 (stereo not given) [SOTALOL] | Not Active | Not Active | – | – | Not Active | – | Not Active | Not Active | Not Active | – | Not Active | Not Active | – | –
